Measurements: ChEMBL document CHEMBL1201862, “PubChem BioAssay data set” (2004)
The source made the active and inactive calls.

How the values were obtained:
[1] = biological target: Luciferin 4-monooxygenase (Photinus pyralis, UniProt P08659); assay: inhibition of purified Photinus pyralis luciferase – biochemical, luminescence, dose response (AID 1891)
[2] = Luminescence Cell-Based Dose Confirmation HTS to Identify Inhibitors of Platelet Dense Granule Release. [Related pubchem assays: 1663 (Primary HTS), 1678 (Summary of Project)]; assay type: functional
[3] = biological target: T1, Fatty acid synthase (Homo sapiens, UniProt P49327); assay: inhibition of human FAS-TE enzyme activity – biochemical, endpoint fluorescence intensity, uHTS hits, dose response (AID 624327); assay type: functional;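 also: fluorescence from hydrolysis of an O-methyl fluorescein acyl ester substrate by the enzyme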
[4] = biological target: T1, Fatty acid synthase; assay: inhibition of human FAS-TE enzyme activity – biochemical, kinetic fluorescence intensity, dose response (AID 624326); assay type: functional;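 also: rate of fluorescence rise from hydrolysis of a fluorogenic O-methyl fluorescein ester substrate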
[5] = biological target: Heat shock protein HSP 90-alpha (Homo sapiens, UniProt P07900); assay type: functional, organism-based
[6] = Luminescence Cell-Based Dose Retest to Confirm Inhibitors of Cancer Stem Cells. [Related pubchem assays (depositor defined):AID2717, AID2721]; assay type: functional; details: Homo sapiens
[7] = biological target: Paired box protein Pax-8 (Homo sapiens, UniProt Q06710); assay: PAX8 transcriptional activity inhibition in RMG-I – RMG-I cells, luciferase, cherry-pick, dose response (AID 687027); assay type: functional, cell-based;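 also: luciferase reporter driven by Pax8 target thyroperoxidase promoter measured by SteadyGlo luminescence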
[8] = system: Vero; assay: cells; assay type: functional; details: Chlorocebus sabaeus
[9] = HEK-293T viability loss after treatment – luminescence, T-cell screen hits, cytotoxicity control for TCR NF-kB inhibitor project, dose response (AID 489026); assay type: functional, cell-based;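 also: cells exposed to compound about 14 hours before the viability readout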
[10] = system: H9c2; assay: cells; assay type: functional, cell-based; details: Rattus norvegicus, H9c2, Myocardium;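 also: confirmatory concentration-response retest of ultra-high-throughput screening hits for modulation of myocardial damage; cell death induced by hydrogen peroxide oxidative stress; compound pretreatment for 60 min then peroxide exposure for 2 h; potency is for protecting the cells against peroxide damage rather than for killing them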
[11] = biological target: Genome polyprotein (dengue virus type 2, UniProt P29990); assay: flavivirus cap methylation enzyme inhibition – biochemical, confirmation dose response, primary screen (AID 588689); assay type: functional
[12] = biological target: T2, Polyadenylate-binding protein 1 (Homo sapiens, UniProt P11940); assay: MLLE domain peptide-binding blockers, IC50 – biochemical, fluorescence polarization, FITC-PAM2 peptide, dose response (AID 602259); assay type: functional; details: read-out: IC50_Mean
[13] = biological target: T2, Polyadenylate-binding protein 1; assay: MLLE binding blockers, Cy5 peptide tracer – biochemical, fluorescence polarization, Cy5-PAM2 peptide, secondary, miRNA deadenylation inhibitor project, dose response (AID 602260); assay type: functional; details: read-out: IC50_Mean
[14] = biological target: T3, Heat shock factor protein 1 (Mus musculus, UniProt P38532); assay: decrease of HSF1-responsive luciferase luminescence – cell-based, NIH3T3, dose retest, confirmation (AID 2382); assay type: functional;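 also: NIH3T3 fibroblasts with HSF1-driven luciferase reporter stressed by proteasome inhibitor MG132; luminescence from HSF1-driven luciferase expression after 8 hours of MG132 stress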
T3 sequence (P38532 whole entry): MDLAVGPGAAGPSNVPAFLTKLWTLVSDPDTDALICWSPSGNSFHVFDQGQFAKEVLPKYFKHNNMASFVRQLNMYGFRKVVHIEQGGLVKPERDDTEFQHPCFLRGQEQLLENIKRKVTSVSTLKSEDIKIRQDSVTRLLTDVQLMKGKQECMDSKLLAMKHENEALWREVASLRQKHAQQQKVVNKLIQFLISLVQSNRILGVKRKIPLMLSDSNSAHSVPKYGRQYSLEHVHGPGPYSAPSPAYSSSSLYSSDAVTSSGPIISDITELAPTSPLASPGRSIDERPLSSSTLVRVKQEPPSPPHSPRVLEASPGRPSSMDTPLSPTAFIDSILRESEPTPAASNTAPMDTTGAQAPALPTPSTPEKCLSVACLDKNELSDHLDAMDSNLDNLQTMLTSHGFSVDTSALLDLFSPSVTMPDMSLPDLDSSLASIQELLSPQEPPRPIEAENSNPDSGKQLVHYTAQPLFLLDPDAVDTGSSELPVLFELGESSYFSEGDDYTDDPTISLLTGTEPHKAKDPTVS

[15] = luciferase reporter signal suppression in cells – H4 neuroglioma cells, luminescence, dose response (AID 1990); assay type: functional, cell-based
[16] = alpha-synuclein stem-loop luciferase translation blockers – H4 neuroglioma cells, luminescence, confirmation (AID 1988); assay type: functional, cell-based
[17] = Luminescence Cell-Based Dose Response HTS to Identify Inhibitors of 5'UTR Stem-Loop Driven Prion Protein mRNA Translation in H4 Neuroglioblastoma Cells. [Related pubchem assays: 1827 (Project Summary), 1813 (Primary HTS)]; assay type: functional
[18] = biological target: T4, Protein RecA (Mycobacterium tuberculosis, UniProt P9WHJ3); assay: Fluorescence Cell-Free Homogeneous Dose Retest to Identify Inhibitors of RecA-Intein Splicing Activity. [Related pubchem assays (depositor defined):AID2097, AID2223, AID489010, AID492950]; assay type: functional
T4 sequence (P9WHJ3 whole entry): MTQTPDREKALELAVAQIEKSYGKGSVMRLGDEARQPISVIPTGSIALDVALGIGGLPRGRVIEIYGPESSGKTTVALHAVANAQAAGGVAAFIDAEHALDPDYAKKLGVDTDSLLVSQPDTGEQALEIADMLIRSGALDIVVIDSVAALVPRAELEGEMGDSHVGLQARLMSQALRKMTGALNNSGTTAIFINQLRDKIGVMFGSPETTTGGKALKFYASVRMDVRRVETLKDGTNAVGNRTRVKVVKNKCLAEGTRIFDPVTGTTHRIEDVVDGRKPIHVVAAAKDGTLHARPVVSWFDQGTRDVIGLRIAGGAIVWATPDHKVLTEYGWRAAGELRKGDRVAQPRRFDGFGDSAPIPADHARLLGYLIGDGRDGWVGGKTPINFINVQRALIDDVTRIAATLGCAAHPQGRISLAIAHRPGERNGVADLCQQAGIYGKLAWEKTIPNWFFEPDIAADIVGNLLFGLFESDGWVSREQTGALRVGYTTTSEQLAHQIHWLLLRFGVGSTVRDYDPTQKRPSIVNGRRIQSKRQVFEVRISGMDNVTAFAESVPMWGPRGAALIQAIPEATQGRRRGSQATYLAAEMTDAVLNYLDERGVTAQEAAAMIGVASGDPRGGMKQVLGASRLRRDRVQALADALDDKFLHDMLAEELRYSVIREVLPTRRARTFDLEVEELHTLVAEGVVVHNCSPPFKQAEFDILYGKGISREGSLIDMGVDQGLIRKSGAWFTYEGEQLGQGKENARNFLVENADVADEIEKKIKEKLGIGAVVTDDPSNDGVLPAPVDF

[19] = biological target: T5, Replicative DNA helicase DnaB (Mycobacterium tuberculosis, UniProt P9WMR3); assay: DnaB intein splicing inhibitors, dose response, biochemical, cell-free fluorescence (AID 449749); assay type: functional
T5 sequence (P9WMR3 whole entry): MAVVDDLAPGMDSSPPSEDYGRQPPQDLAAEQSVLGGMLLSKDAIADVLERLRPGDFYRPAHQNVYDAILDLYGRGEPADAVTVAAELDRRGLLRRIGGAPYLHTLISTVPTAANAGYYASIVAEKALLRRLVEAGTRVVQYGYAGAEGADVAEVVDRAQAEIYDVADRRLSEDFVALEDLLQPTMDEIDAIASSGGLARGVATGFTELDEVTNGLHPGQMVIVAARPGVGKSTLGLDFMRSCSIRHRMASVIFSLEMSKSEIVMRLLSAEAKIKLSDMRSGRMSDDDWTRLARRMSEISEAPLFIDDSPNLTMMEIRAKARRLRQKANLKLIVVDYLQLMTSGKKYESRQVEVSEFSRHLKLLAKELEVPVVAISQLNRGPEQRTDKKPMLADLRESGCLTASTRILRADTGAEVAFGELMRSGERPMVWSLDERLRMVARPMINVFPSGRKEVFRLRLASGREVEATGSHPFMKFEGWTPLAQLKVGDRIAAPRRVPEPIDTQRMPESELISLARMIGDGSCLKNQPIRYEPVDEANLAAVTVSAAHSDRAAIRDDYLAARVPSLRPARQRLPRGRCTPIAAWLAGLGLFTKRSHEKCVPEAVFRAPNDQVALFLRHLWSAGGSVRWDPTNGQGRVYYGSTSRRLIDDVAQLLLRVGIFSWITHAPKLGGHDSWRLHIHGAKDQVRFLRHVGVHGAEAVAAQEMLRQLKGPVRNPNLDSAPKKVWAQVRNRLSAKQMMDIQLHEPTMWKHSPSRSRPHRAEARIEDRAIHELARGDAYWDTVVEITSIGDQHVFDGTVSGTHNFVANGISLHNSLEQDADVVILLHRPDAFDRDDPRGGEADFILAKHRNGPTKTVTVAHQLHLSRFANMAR

T1 sequence (P49327 whole entry): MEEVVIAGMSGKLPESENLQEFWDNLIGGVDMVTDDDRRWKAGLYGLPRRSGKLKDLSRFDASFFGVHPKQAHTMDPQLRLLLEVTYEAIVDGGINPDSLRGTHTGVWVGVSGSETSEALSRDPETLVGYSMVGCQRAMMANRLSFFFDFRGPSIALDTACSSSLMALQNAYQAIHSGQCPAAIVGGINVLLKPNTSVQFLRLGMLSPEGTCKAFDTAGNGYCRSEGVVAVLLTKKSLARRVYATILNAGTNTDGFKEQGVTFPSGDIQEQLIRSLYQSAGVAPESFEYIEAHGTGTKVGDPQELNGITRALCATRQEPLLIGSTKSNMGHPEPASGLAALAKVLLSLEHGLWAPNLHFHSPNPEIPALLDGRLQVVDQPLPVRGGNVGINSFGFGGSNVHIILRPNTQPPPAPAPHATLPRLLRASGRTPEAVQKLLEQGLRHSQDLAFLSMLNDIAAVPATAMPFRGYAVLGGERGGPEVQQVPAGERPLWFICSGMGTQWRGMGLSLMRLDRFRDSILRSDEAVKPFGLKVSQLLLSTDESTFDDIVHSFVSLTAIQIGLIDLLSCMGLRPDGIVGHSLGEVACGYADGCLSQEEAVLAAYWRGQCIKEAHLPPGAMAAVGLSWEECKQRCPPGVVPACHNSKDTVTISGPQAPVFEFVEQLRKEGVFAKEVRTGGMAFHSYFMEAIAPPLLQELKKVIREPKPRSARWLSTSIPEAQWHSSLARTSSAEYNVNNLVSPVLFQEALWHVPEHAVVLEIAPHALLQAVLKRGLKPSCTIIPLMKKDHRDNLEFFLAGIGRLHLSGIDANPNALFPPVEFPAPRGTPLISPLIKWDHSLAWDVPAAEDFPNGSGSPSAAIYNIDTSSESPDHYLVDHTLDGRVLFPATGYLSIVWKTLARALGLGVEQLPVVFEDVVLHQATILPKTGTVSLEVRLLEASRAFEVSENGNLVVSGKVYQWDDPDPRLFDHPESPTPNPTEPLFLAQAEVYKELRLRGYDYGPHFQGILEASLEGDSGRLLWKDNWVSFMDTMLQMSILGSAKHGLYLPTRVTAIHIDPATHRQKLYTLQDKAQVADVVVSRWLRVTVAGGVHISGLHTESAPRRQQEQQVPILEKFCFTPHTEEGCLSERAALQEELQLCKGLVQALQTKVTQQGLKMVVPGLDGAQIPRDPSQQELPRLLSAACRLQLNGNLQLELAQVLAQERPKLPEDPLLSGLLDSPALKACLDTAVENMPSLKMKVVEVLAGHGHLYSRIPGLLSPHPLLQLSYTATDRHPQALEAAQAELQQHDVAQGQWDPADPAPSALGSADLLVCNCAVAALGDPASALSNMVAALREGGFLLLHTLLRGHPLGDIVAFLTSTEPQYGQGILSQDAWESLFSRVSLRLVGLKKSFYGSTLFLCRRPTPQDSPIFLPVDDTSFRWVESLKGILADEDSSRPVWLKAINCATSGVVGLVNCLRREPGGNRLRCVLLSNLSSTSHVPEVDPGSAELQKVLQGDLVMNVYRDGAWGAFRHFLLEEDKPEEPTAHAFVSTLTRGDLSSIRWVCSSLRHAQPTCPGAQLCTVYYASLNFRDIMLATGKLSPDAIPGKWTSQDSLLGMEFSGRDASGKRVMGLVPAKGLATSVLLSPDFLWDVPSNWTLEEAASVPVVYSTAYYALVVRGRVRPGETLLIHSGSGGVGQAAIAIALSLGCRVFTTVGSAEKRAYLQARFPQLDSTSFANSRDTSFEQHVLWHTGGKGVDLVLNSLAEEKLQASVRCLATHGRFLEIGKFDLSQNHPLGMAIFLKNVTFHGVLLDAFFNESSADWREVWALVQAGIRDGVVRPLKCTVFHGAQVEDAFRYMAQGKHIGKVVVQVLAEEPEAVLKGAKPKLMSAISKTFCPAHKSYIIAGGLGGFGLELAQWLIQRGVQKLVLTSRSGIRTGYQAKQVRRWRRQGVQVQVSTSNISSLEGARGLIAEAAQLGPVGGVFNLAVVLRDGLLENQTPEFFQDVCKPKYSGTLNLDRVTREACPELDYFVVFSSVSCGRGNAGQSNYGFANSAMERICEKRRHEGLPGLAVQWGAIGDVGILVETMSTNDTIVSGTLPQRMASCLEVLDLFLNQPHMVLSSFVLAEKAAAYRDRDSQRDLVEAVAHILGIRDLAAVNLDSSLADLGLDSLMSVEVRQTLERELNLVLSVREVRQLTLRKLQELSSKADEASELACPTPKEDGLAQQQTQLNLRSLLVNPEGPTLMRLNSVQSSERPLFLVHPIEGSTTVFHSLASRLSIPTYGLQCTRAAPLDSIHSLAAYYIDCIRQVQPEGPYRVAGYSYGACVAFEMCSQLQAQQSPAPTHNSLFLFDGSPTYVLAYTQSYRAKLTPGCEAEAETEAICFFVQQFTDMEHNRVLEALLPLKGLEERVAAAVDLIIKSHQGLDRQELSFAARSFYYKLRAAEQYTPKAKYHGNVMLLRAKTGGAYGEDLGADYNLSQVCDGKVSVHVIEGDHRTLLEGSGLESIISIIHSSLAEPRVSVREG
Luciferin 4-monooxygenase, sequence (P08659 whole entry): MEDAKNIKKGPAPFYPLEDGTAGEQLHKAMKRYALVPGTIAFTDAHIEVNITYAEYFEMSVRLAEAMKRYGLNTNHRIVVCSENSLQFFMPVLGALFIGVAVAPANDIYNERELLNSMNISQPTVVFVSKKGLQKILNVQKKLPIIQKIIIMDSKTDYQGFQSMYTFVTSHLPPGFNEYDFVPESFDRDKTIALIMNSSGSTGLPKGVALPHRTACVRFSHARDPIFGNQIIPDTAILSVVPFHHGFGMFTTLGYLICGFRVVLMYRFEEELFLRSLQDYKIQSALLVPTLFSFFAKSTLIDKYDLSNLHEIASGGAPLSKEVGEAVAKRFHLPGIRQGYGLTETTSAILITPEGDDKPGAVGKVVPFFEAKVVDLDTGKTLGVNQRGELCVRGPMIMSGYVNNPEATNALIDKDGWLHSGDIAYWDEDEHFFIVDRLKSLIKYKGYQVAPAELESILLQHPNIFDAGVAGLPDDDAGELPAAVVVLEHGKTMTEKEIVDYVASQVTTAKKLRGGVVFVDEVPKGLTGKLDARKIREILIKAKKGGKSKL
T2 sequence (P11940 whole entry, the tested form may be a part): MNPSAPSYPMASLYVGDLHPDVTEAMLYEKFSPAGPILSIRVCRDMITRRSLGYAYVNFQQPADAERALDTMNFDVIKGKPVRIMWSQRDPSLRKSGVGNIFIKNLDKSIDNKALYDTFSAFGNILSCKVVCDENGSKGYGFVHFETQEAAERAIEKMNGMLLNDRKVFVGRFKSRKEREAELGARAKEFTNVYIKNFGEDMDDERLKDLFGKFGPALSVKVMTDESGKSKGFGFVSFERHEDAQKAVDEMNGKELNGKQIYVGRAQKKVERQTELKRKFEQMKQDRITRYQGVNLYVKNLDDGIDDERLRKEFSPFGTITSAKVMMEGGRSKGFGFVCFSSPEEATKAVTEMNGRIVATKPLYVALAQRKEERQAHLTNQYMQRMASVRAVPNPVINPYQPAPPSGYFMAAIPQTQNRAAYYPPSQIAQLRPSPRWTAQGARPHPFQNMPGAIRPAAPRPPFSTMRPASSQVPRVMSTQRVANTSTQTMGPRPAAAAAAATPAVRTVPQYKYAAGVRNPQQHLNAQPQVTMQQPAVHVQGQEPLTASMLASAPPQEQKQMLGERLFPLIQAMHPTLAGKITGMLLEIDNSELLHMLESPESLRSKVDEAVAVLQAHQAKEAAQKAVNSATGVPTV
Genome polyprotein, sequence (P29990 2492-3391 limits assumed): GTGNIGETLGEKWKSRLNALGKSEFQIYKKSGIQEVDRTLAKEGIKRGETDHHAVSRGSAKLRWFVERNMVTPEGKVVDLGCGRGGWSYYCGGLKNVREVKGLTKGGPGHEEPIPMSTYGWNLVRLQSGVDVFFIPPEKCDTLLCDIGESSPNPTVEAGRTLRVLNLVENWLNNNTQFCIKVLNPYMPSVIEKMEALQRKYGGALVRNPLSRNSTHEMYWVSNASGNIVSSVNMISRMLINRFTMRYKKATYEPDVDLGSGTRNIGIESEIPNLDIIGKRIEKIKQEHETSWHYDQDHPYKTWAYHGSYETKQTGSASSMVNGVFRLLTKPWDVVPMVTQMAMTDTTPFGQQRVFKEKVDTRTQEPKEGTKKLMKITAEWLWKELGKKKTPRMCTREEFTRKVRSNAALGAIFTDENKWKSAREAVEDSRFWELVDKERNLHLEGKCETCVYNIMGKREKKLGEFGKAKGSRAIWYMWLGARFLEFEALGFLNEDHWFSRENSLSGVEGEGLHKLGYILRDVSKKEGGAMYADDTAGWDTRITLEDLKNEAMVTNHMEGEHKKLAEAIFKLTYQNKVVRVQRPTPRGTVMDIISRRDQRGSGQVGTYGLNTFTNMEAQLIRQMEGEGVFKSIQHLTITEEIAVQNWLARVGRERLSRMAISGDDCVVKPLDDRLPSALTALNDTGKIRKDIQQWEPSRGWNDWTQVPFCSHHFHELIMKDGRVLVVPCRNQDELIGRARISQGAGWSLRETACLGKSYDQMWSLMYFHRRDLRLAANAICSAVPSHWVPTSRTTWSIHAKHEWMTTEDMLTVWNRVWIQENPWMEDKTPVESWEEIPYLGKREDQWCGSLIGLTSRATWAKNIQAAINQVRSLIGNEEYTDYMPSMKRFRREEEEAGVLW
Paired box protein Pax-8, sequence (Q06710 whole entry): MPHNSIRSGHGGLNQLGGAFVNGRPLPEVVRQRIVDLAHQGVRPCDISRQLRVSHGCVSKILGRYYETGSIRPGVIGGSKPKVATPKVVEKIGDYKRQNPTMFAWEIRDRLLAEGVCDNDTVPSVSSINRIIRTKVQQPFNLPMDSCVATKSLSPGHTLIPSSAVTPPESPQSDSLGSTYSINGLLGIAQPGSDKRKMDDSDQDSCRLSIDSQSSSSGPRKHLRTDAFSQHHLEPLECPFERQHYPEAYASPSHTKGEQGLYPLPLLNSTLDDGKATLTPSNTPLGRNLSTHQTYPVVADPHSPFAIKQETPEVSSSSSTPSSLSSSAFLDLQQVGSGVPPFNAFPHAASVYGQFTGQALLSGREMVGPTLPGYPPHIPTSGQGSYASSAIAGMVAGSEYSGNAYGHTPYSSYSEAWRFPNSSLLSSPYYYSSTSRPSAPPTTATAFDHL

| Compound | IC50 [3] | IC50 [4] | IC50 [10] | further results |
| --- | --- | --- | --- | --- |
| Cc1ccccc1C(=O)OCn1nnc2ccccc2c1=O | – | – | – | EC50 [1]: > 112 µM (not active); EC50 [2]: 16.2 µM (active) |
| COc1ccc(Cl)cc1-c1cc(C(=O)NCc2ccc(C(F)(F)F)cc2)[nH]n1 | 15.4 µM (active) | 17.1 µM (active) | – | – |
| CCCc1cc(=O)oc2cc(OCc3ccc(C(=O)O)cc3)ccc12 | – | – | – | AC50 [5]: 3.75 µM (active) |
| Cc1cc(F)ccc1NC(=O)c1cc(S(=O)(=O)N2CCOCC2)cn1C | – | – | – | EC50 [1]: > 112 µM (not active); EC50 [2]: > 112 µM (not active) |
| O=C(CCN1C(=O)C2C3CCC(C3)C2C1=O)Nc1ccccc1Cl (centres undefined) | – | – | – | EC50 [1]: > 112 µM (not active); EC50 [2]: > 112 µM (not active) |
| COc1cccc(N2CCN(Cc3ccc(Cl)cc3)CC2)c1 | – | – | – | EC50 [1]: > 112 µM (not active); EC50 [2]: > 112 µM (not active) |
| CC1CCCN(C(=O)COC(=O)c2cc([N+](=O)[O-])ccc2N2CCOCC2)C1 (centres undefined) | 2.27 µM (active) | 1.91 µM (active) | – | – |
| CC1Cc2nc(SCC(=O)N3CCCc4ccccc43)n(C)c(=O)c2S1 (centres undefined) | – | – | – | EC50 [1]: > 112 µM (not active); EC50 [2]: > 112 µM (not active) |
| Cn1c(SCc2cccc(Cl)c2)nc(C(F)(F)F)cc1=O | 18.4 µM (active) | 12.2 µM (active) | – | – |
| C[C@]12CC[C@H]3[C@@H](CC[C@]4(O)C[C@@H](O)CC[C@]34C=O)[C@@]1(O)CC[C@@H]2C1=CC(=O)OC1 [STROPHANTHIDIN] | – | – | – | AC50 [6]: 0.582 µM (active); AC50 [7]: 2.22 µM (active); CC50 [8]: 1.22 µM (active); IC50 [9]: > 80 µM (inactive) |
| COc1cccc(-c2ccc(SCC(=O)N3CCN(c4ccccc4)CC3)nn2)c1 | – | – | 16.1 µM (active) | – |
| COc1cc(C(=O)Nc2ccc(NC(=O)c3ccco3)nc2)cc(OC)c1OC | – | – | 21.4 µM (active) | – |
| O=C(NC12CC3CC(CC(C3)C1)C2)c1cc([N+](=O)[O-])ccc1N1CCOCC1 | 24.9 µM (inactive) | 14.7 µM (active) | – | – |
| O=C(O)CN1C(=O)/C(=C2\SC(=S)N(C(Cc3ccccc3)C(=O)O)C2=O)c2ccccc21 (centres undefined) | – | – | – | IC50 [11]: 42 µM (active); IC50 [12]: > 66 µM (inactive); IC50 [13]: > 66 µM (inactive) |
| COCCNC(=O)COC(=O)c1ccc(OCC(=O)Nc2ccccc2OC)c(OC)c1 | – | – | > 79 µM (inactive) | – |
| CCN(CC(=O)Nc1c(F)cccc1F)C(=O)Cc1nnc(O)c2ccccc12 | – | – | > 79 µM (inactive) | EC50 [14]: > 195 µM (not active) |
| COc1cc2nc(C3CCC3)nc(N3CCN(c4ccccn4)CC3)c2cc1OC | – | – | > 79 µM (inactive) | EC50 [15]: 15.1 µM (active); EC50 [16]: 15.2 µM (active); EC50 [17]: 14.6 µM (active) |
| COCCCNC(=O)/C(C#N)=C1\N=C(NC(=O)c2cccs2)c2ccccc21 | – | – | > 79 µM (inactive) | – |
| O=C(CCc1nc(O)c2ccccc2n1)Nc1ccc(F)cc1 | – | – | > 79 µM (inactive) | – |
| CCCCOc1ccc(C(=O)NCC(=O)N(C)Cc2nc(O)c3ccccc3n2)cc1 | – | – | > 79 µM (inactive) | – |
| COc1ccc(CNC(=O)C[C@H]2C[C@H](C(=O)N3CCOCC3)[C@@]3(CCC4CCCC4)c4[nH]c5ccc(Cl)cc5c4CCN3C2=O)cc1OC | 1.71 µM (active) | 0.878 µM (active) | – | – |
| COc1cc(/C=N/NC(=O)c2cccnc2)ccc1OS(=O)(=O)c1ccc(F)cc1 | – | – | 7.92 µM (active) | – |
| O=C(CNC(=O)c1ccccc1F)N/N=C/c1cc(Br)ccc1OC(=O)/C=C/c1ccco1 | – | – | > 79 µM (inactive) | – |
| O=C1C(Cl)=C(N2CCCCC2)C(=O)N1c1ccccc1 | – | – | – | IC50 [11]: 66.9 µM (active); EC50 [18]: 3.22 µM (active); AC50 [19]: 8.22 µM (active) |
| Cc1ccc(S(=O)(=O)N2CCN(C(=O)COC(=O)c3cc([N+](=O)[O-])ccc3NCCO)CC2)c(C)c1 | 6.04 µM (active) | 2.7 µM (active) | – | – |
| CCOC(=O)CCSc1nc2c(c(C(F)(F)F)c1C#N)CCC2 | 7.74 µM (active) | 8.57 µM (active) | – | – |
| O=C(COC(=O)c1cc([N+](=O)[O-])ccc1N1CCOCC1)Nc1ccc(Cl)cc1 | 2.23 µM (active) | 1.96 µM (active) | – | – |
| Cc1cc(C)c([N+](=O)[O-])cc1NCC(=O)N1CCN(c2ccccc2)CC1 | 9.53 µM (active) | 6.55 µM (active) | – | – |
| CC1Cc2ccccc2N1C(=O)Cn1nc(C(=O)O)c2ccccc2c1=O (centres undefined) | – | – | 13.7 µM (active) | – |
